This assay has as its target T1, Recombinant human cathepsin K (Homo sapiens, UniProt P43235).
T1 construct: made in house
T1 sequence (P43235 115-329): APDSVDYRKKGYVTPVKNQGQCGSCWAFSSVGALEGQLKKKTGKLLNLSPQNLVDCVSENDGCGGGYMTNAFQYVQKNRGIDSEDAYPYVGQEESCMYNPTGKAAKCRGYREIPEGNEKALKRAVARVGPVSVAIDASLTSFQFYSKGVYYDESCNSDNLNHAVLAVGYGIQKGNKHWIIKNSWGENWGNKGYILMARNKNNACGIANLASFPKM
The assay is described as follows: Inhibition of cathepsin K activity (Z-Phe-Arg-AMC fluorescence assay). The conditions noted are these: 25 uM Z-Phe-Arg-AMC, pH 5.5, 1 hour at 37° C. Type of assay: biochemical. The method, then:
Test 1: Inhibition of Cathepsin K Activity
Recombinant human cathepsin K was prepared in accordance with Biol, Pharm. Bull, 19(8), 1026-1031 (1996) and J. Biol. Chem. 271, 2126-2132 (1996). Stock solutions of 2.5 mM Z-Phe-Arg-AMC (BACHEM, 1-1160) and all inhibitors were prepared in dimethyl sulfoxide. In vitro assays for cathepsin K were conducted with 25 uM Z-Phe-Arg-AMC as a substrate at pH 5.5 in 100 mM Na acetate buffer containing 20 mM cysteine and 5 mM EDTA in the presence of 2% final concentration of DMSO. Reaction was initiated by the addition of enzyme to samples, which were then incubated for 1 hour at 37° C. The fluorescence was monitored at 460 nm (excitation wavelength 360 nm) using fluorescence plate reader.
The concentrations of the test compounds, which inhibit 50% of cathepsin K activity, are represented as IC50 in Table 1.

These results are taken from US7342027B2 (Yuhan Corporation, priority 2002, dated 2008).

Molecules are shown by their SMILES. Structures can show the parent of a compound that is named as a salt.

Take `Cc1ccc(C(=O)NC2(C(=O)NC3CCN(c4ccccc4S(C)(=O)=O)CC3=O)CCCCC2)o1` (centres unmarked) [Example 123, 4-[N-[1-[N-(5-methyl-furan-2-ylcarbonyl)amino]cyclohexanecarbonyl]amino]-1-(2-methanesulfonylphenyl)piperidin-3-one]: the IC50 came out at 4.97 nM.
On to `Cc1cc(C(=O)NC2(C(=O)NC3CCN(c4ccccc4S(C)(=O)=O)CC3=O)CCCCC2)oc1C` (centres unmarked) [Example 125, 4-[N-[1-[N-(4,5-dimethyl-furan-2-ylcarbonyl)amino]cyclohexanecarbonyl]amino]-1-(2-methanesulfonylphenyl)piperidin-3-one], for which the IC50 is 6.8 nM.
For the molecule `CS(=O)(=O)c1ccccc1N1CCC(NC(=O)C2(NC(=O)c3cc4ccccc4s3)CCCCC2)C(=O)C1` (centres unmarked) [Example 128, 4-[N-[1-[N-(benzothiophen-2-ylcarbonyl)amino]cyclohexanecarbonyl]amino]-1-(2-methanesulfonylphenyl)piperidin-3-one], the IC50 is 0.67 nM.
Regarding `CC(C)(C)OC(=O)c1ccccc1N1CCC(NC(=O)C2(NC(=O)c3cc4ccccc4s3)CCCCC2)C(=O)C1` (centres unmarked) [Example 129, 4-[N-[1-[N-(benzothiophen-2-ylcarbonyl)amino]cyclohexanecarbonyl]amino]-1-(2-tert-butoxycarbonylphenyl)piperidin-3-one], the concentration for half-maximal inhibition (IC50) was determined as 0.45 nM.
In the case of `O=C(NC1(C(=O)NC2CCN(c3cc(C(F)(F)F)ccc3Cl)CC2=O)CCCCC1)c1cc2ccccc2s1` (centres unmarked) [Example 130, 4-[N-[1-[N-(benzothiophen-2-ylcarbonyl)amino]cyclohexanecarbonyl]amino]-1-(2-chloro-5-trifluoromethylphenyl)piperidin-3-one], the IC50 came out at 1.2 nM.
For the molecule `O=C(NC1(C(=O)NC2CCN(c3ccc(Cl)cc3F)CC2=O)CCCCC1)c1cc2ccccc2s1` (centres unmarked) [Example 131, 4-[N-[1-[N-(benzothiophen-2-ylcarbonyl)amino]cyclohexanecarbonyl]amino]-1-(4-chloro-2-fluoro-phenyl)piperidin-3-one], the IC50 came out at 4.11 nM.
`Cc1c(C(=O)NC2(C(=O)NC3CCN(c4ccccc4S(C)(=O)=O)CC3=O)CCCCC2)oc2ccccc12` (centres unmarked) [Example 133, 4-[N-[1-[N-(3-methyl-benzofuran-2-ylcarbonyl)amino]cyclohexanecarbonyl]amino]-1-(2-methanesulfonylphenyl)piperidin-3-one]: the concentration for half-maximal inhibition (IC50) worked out at 1.22 nM.
Consider `Cc1c(C(=O)NC2(C(=O)NC3CCN(c4cc(F)ccc4C(F)(F)F)CC3=O)CCCCC2)oc2ccccc12` (centres unmarked) [Example 134, 4-[N-[1-[N-(3-methyl-benzofuran-2-ylcarbonyl)amino]cyclohexanecarbonyl]amino]-1-(5-fluoro-2-trifluoromethylphenyl)piperidin-3-one], for which the IC50 is 6.09 nM.
`CS(=O)(=O)c1ccccc1N1CCC(NC(=O)C2(NC(=O)c3ccc4ccccc4n3)CCCCC2)C(=O)C1` (centres unmarked) [Example 136, 4-[N-[1-[N-(quinolin-2-ylcarbonyl)amino]cyclohexanecarbonyl]amino]-1-(2-methanesulfonylphenyl)piperidin-3-one]: the IC50 came to 1.62 nM.
As to `O=C(NC1(C(=O)NC2CCN(c3ccccc3[N+](=O)[O-])CC2=O)CCCCC1)c1ccc2ccccc2n1` (centres unmarked) [Example 138, 4-[N-[1-[N-(quinolin-2-ylcarbonyl)amino]cyclohexanecarbonyl]amino]-1-(2-nitrophenyl)piperidin-3-one], the IC50 was found to be 4.82 nM.
As for `CS(=O)(=O)c1ccccc1N1CCC(NC(=O)C2(NC(=O)c3ccc(-c4ccccc4)cc3)CCCCC2)C(=O)C1` (centres unmarked) [Example 153, 4-[N-[1-[N-(4-biphenylcarbonyl)amino]cyclohexanecarbonyl]amino]-1-(2-methanesulfonylphenyl)piperidin-3-one], the IC50 amounted to 0.36 nM.
Take `CS(=O)(=O)c1ccccc1N1CCC(NC(=O)C2(NC(=O)c3ccc(C(F)(F)F)cc3)CCCCC2)C(=O)C1` (centres unmarked) [Example 154, 4-[N-[1-[N-(4-trifluoromethylbenzoyl)amino]cyclohexanecarbonyl]amino]-1-(2-methanesulfonylphenyl)piperidin-3-one]: the IC50 stood at 1.37 nM.
To `CS(=O)(=O)c1ccccc1N1CCC(NC(=O)C2(NC(=O)c3ccc(OCCN4CCOCC4)cc3)CCCCC2)C(=O)C1` (centres unmarked) [Example 155, 4-[N-[1-[N-(4-(2-morpholinethoxy)benzoyl)amino]cyclohexanecarbonyl]amino]-1-(2-methanesulfonylphenyl)piperidin-3-one] belongs 1.29 nM; to `CS(=O)(=O)c1ccccc1N1CCC(NC(=O)C2(NC(=O)c3ccc(OCCN4CCCC4)cc3)CCCCC2)C(=O)C1` (centres unmarked) [Example 156, 4-[N-[1-[N-(4-(2-pyrrolidinethoxy)benzoyl)amino]cyclohexanecarbonyl]amino]-1-(2-methanesulfonylphenyl)piperidin-3-one], 1.9 nM.
Regarding `CS(=O)(=O)c1ccccc1N1CCC(NC(=O)C2(NC(=O)c3ccc(OCCN4CCOCC4)cc3)CCCCC2)C(=O)C1` (centres unmarked) [Example 158, 4-[N-[1-[N-(4-(2-morpholinethoxy)benzoyl)amino]cyclohexanecarbonyl]amino]-1-(2-methanesulfonylphenyl)piperidin-3-one hydrochloride], the IC50 is 3.15 nM.
For the molecule `CS(=O)(=O)c1ccccc1N1CCC(NC(=O)C2(NC(=O)c3ccc(OCCN4CCCC4)cc3)CCCCC2)C(=O)C1` (centres unmarked) [Example 159, 4-[N-[1-[N-(4-(2-pyrrolidinethoxy)benzoyl)amino]cyclohexanecarbonyl]amino]-1-(2-methanesulfonylphenyl)piperidin-3-one hydrochloride], the half-inhibitory concentration (IC50) is 3.25 nM.
Take `CS(=O)(=O)c1ccccc1N1CCC(NC(=O)C2(NC(=O)c3ccc(OCCN4CCCCC4)cc3)CCCCC2)C(=O)C1` (centres unmarked) [Example 160, 4-[N-[1-[N-(4-(2-piperidinethoxy)benzoyl)amino]cyclohexanecarbonyl]amino]-1-(2-methanesulfonylphenyl)piperidin-3-one hydrochloride]: the IC50 worked out at 3.14 nM.
As for `CS(=O)(=O)c1ccccc1N1CCC(NC(=O)C2(NC(=O)c3cc4cc(OCCN5CCOCC5)ccc4o3)CCCCC2)C(=O)C1` (centres unmarked) [Example 161, 4-[N-[1-[N-(5-(2-morpholinethoxy)benzofuran-2-ylcarbonyl)amino]cyclohexanecarbonyl]amino]-1-(2-methanesulfonylphenyl)piperidin-3-one], the IC50 worked out at 0.41 nM.
Take `CS(=O)(=O)c1ccccc1N1CCC(NC(=O)C2(NC(=O)c3cc4cc(OCCN5CCCC5)ccc4o3)CCCCC2)C(=O)C1` (centres unmarked) [Example 162, 4-[N-[1-[N-(5-(2-pyrrolidinethoxy)benzofuran-2-ylcarbonyl)amino]cyclohexanecarbonyl]amino]-1-(2-methanesulfonylphenyl)piperidin-3-one]: the IC50 was determined as 0.45 nM.
For the molecule `CS(=O)(=O)c1ccccc1N1CCC(NC(=O)C2(NC(=O)c3cc4cc(OCCN5CCCCC5)ccc4o3)CCCCC2)C(=O)C1` (centres unmarked) [Example 163, 4-[N-[1-[N-(5-(2-piperidinethoxy)benzofuran-2-ylcarbonyl)amino]cyclohexanecarbonyl]amino]-1-(2-methanesulfonylphenyl)piperidin-3-one], the IC50 was determined as 0.55 nM.
Turning to `CS(=O)(=O)c1ccccc1N1CCC(NC(=O)C2(NC(=O)c3cc4cc(OCCN5CCOCC5)ccc4o3)CCCCC2)C(=O)C1` (centres unmarked) [Example 164, 4-[N-[1-[N-(5-(2-morpholinethoxy)benzofuran-2-ylcarbonyl)amino]cyclohexanecarbonyl]amino]-1-(2-methanesulfonylphenyl)piperidin-3-one hydrochloride], the IC50 is 0.52 nM.
In the case of `CS(=O)(=O)c1ccccc1N1CCC(NC(=O)C2(NC(=O)c3cc4cc(OCCN5CCCC5)ccc4o3)CCCCC2)C(=O)C1` (centres unmarked) [Example 165, 4-[N-[1-[N-(5-(2-pyrrolidinethoxy)benzofuran-2-ylcarbonyl)amino]cyclohexanecarbonyl]amino]-1-(2-methanesulfonylphenyl)piperidin-3-one hydrochloride], the IC50 amounted to 1.63 nM.
For the molecule `CS(=O)(=O)c1ccccc1N1CCC(NC(=O)C2(NC(=O)c3cc4cc(OCCN5CCCCC5)ccc4o3)CCCCC2)C(=O)C1` (centres unmarked) [Example 166, 4-[N-[1-[N-(5-(2-piperidinethoxy)benzofuran-2-ylcarbonyl)amino]cyclohexanecarbonyl]amino]-1-(2-methanesulfonylphenyl)piperidin-3-one hydrochloride], the IC50 was found to be 0.71 nM.
With `CS(=O)(=O)c1ccccc1N1CCC(NC(=O)C2(NC(=O)c3ccc(N4CCCC4=O)cc3)CCCCC2)C(=O)C1` (centres unmarked) [Example 167, 4-[N-[1-[N-(4-(2-oxopyrrolidine)benzoyl)amino]cyclohexanecarbonyl]amino]-1-(2-methanesulfonylphenyl)piperidin-3-one], the half-inhibitory concentration (IC50) is 3.07 nM.
With `CS(=O)(=O)c1ccccc1N1CCC(NC(=O)C2(NC(=O)c3cc(N4CCCC4=O)co3)CCCCC2)C(=O)C1` (centres unmarked) [Example 168, 4-[N-[1-[N-(4-(2-oxopyrrolidine)furan-2-ylcarbonyl)amino]cyclohexanecarbonyl]amino]-1-(2-methanesulfonylphenyl)piperidin-3-one], the IC50 turned out to be 15.8 nM.
As to `CS(=O)(=O)Nc1cc(F)ccc1N1CCC(NC(=O)C2(NC(=O)c3ccc(OCCN4CCOCC4)cc3)CCCCC2)C(=O)C1` (centres unmarked) [Example 169, 4-[N-[1-[N-(4-(2-morpholinethoxy)benzoyl)amino]cyclohexanecarbonyl]amino]-1-(4-fluoro-2-methanesulfonylaminophenyl)piperidin-3-one], the IC50 came out at 0.58 nM.
